Measured values reported in patent US20120029187A1, “HALOALKYLSULFONANILIDE DERIVATIVE” (Nissan Chemical Industries, Ltd., priority 2009, published 2012).

Assays:
Format in all cases: in vivo
[1] = system: bulrush; test: Test Example 2: herbicidal effects during the vegetation period under submerged conditions; settings: treatment during the vegetation period under submerged conditions; dose 2.52 g/a
In short: (§1)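 Barnyardgrass, bulrush and ducksalad were co-sown in alluvial soil flooded to 4 cm and grown in a greenhouse at 25 to 30° C. At the 1- or 2-leaf stage, water-diluted emulsifiable concentrates went onto the water surface at set doses (g/a). Herbicidal effect was scored three weeks later on a graded scale.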

[2] = system: ducksalad; test: as above; settings: treatment during the vegetation period under submerged conditions; dose 2.52 g/a
In short: as §1

[3] = system: barnyardgrass; test: as above; settings: treatment during the vegetation period under submerged conditions; dose 2.52 g/a
In short: as §1

[4] = system: beadstraw; test: Test Example 4: herbicidal effect in foliage treatment; settings: dose 6.3 g/a, three weeks after application
In short: (§2)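 Herbicidal effect was rated on an evaluation scale three weeks after treatment. Plants had been raised 14 days at 25 to 30° C in sterilized diluvial soil, then received foliar sprays of emulsifiable concentrate diluted in water at predetermined doses expressed as g per are.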

[5] = system: common chickweed; test: as above; settings: three weeks after application
In short: as §2

[6] = system: posumbu knotweed; test: as above; settings: three weeks after application
In short: as §2

[7] = system: velvetleaf; test: as above; settings: three weeks after application
In short: as §2

[8] = system: large crabgrass; test: as above; settings: three weeks after application
In short: as §2

[9] = system: redroot pigweed; test: as above; settings: three weeks after application
In short: as §2

[10] = system: common lambsquater; test: as above; settings: three weeks after application
In short: as §2

[11] = system: common ragweed; test: as above; settings: three weeks after application
In short: as §2

[12] = system: barnyardgrass; test: as above; settings: three weeks after application
In short: as §2

[13] = system: Italian ryegrass; test: as above; settings: three weeks after application
In short: as §2

[14] = system: water foxtail; test: as above; settings: three weeks after application
In short: as §2

[15] = system: giant foxtail; test: as above; settings: three weeks after application
In short: as §2

[16] = system: bulrush; test: Test Example 1: herbicidal effects in preemergence treatment under submerged conditions; settings: dose 2.52 g/a
In short: (§3)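 Submerged conditions, 4 cm water over alluvial soil. Weeds sown and 2.5-leaf rice transplanted; compound applied preemergence to water surface, doses in g per are. Greenhouse, 25 to 30° C., three weeks, then 0–5 mortality rating.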

[17] = system: ducksalad; test: as above; settings: dose 2.52 g/a
In short: as §3

[18] = system: barnyardgrass; test: as above; settings: dose 2.52 g/a
In short: as §3

[19] = system: common chickweed; test: Test Example 3: herbicidal effects in soil treatment; settings: dose 3.2 g/a
In short: (§4)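 Seeds were sown in sterilized diluvial soil and covered with about 1.5 cm of soil. Compounds, formulated as emulsifiable concentrates and diluted with water, were sprayed evenly over the soil surface at set doses in g/a. Herbicidal effect was scored on a rating scale three weeks later.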

[20] = system: posumbu knotweed; test: as above; settings: dose 3.2 g/a
In short: as §4

[21] = system: velvetleaf; test: as above; settings: dose 3.2 g/a
In short: as §4

[22] = system: large crabgrass; test: as above; settings: dose 3.2 g/a
In short: as §4

[23] = system: redroot pigweed; test: as above; settings: dose 3.2 g/a
In short: as §4

[24] = system: common lambsquater; test: as above; settings: dose 3.2 g/a
In short: as §4

[25] = system: common ragweed; test: as above; settings: dose 3.2 g/a
In short: as §4

[26] = system: barnyardgrass; test: as above; settings: dose 3.2 g/a
In short: as §4

[27] = system: Italian ryegrass; test: as above; settings: dose 3.2 g/a
In short: as §4

[28] = system: water foxtail; test: as above; settings: dose 3.2 g/a
In short: as §4

[29] = system: giant foxtail; test: as above; settings: dose 3.2 g/a
In short: as §4

[30] = system: transplanted rice; test: Test Example 1: preemergence treatment under submerged conditions, effect on crop; settings: dose 2.52 g/a
In short: as §3

| Compound | B: bulrush, herbicidal effect (evaluation scale 0-5) [1] | C: ducksalad, herbicidal effect (evaluation scale 0-5) [2] | A: barnyardgrass, herbicidal effect (evaluation scale 0-5) [3] | B: bulrush, herbicidal effect (evaluation scale 0-5) [16] | C: ducksalad, herbicidal effect (evaluation scale 0-5) [17] | A: barnyardgrass, herbicidal effect (evaluation scale 0-5) [18] | N: common chickweed, herbicidal effect (evaluation scale 0-5) [19] | M: posumbu knotweed, herbicidal effect (evaluation scale 0-5) [20] | I: velvetleaf, herbicidal effect (evaluation scale 0-5) [21] | D: large crabgrass, herbicidal effect (evaluation scale 0-5) [22] | K: redroot pigweed, herbicidal effect (evaluation scale 0-5) [23] | L: common lambsquater, herbicidal effect (evaluation scale 0-5) [24] | J: common ragweed, herbicidal effect (evaluation scale 0-5) [25] | A: barnyardgrass, herbicidal effect (evaluation scale 0-5) [26] | H: Italian ryegrass, herbicidal effect (evaluation scale 0-5) [27] | G: water foxtail, herbicidal effect (evaluation scale 0-5) [28] | E: giant foxtail, herbicidal effect (evaluation scale 0-5) [29] | N: common chickweed, herbicidal effect ([5]; dose 3.2 g/a) | M: posumbu knotweed, herbicidal effect ([6]; dose 3.2 g/a) | I: velvetleaf, herbicidal effect ([7]; dose 3.2 g/a) | also measured |
| --- | --- | --- | --- | --- | --- | --- | --- | --- | --- | --- | --- | --- | --- | --- | --- | --- | --- | --- | --- | --- | --- |
| CCOC(=O)N(c1ccccc1CN1CC(C)OCC1=O)S(=O)(=O)C(F)(F)F (stereo not drawn) [Compound I-7] | 5 (mortality of 90% or above (nearly complete death)) | 5 (mortality of 90% or above (nearly complete death)) | 5 (mortality of 90% or above (nearly complete death)) | 5 (mortality of 90% or above (nearly complete death)) | 5 (mortality of 90% or above (nearly complete death)) | 5 (mortality of 90% or above (nearly complete death)) | 5 (mortality of 90% or above (nearly complete death)) | 5 (mortality of 90% or above (nearly complete death)) | 5 (mortality of 90% or above (nearly complete death)) | 5 (mortality of 90% or above (nearly complete death)) | 5 (mortality of 90% or above (nearly complete death)) | 5 (mortality of 90% or above (nearly complete death)) | 5 (mortality of 90% or above (nearly complete death)) | 5 (mortality of 90% or above (nearly complete death)) | 5 (mortality of 90% or above (nearly complete death)) | 5 (mortality of 90% or above (nearly complete death)) | 5 (mortality of 90% or above (nearly complete death)) | – | – | – | O: beadstraw, herbicidal effect [4]: 5 (mortality of 90% or above (nearly complete death)); N: common chickweed, herbicidal effect ([5]; dose 6.3 g/a): 5 (mortality of 90% or above (nearly complete death)); M: posumbu knotweed, herbicidal effect ([6]; dose 6.3 g/a): 4 (mortality of at least 70% and less than 90%); I: velvetleaf, herbicidal effect ([7]; dose 6.3 g/a): 5 (mortality of 90% or above (nearly complete death)); D: large crabgrass, herbicidal effect ([8]; dose 6.3 g/a): 5 (mortality of 90% or above (nearly complete death)); K: redroot pigweed, herbicidal effect ([9]; dose 6.3 g/a): 1 (mortality of at least 5% and less than 20%); L: common lambsquater, herbicidal effect ([10]; dose 6.3 g/a): 4 (mortality of at least 70% and less than 90%); J: common ragweed, herbicidal effect ([11]; dose 6.3 g/a): 4 (mortality of at least 70% and less than 90%); A: barnyardgrass, herbicidal effect ([12]; dose 6.3 g/a): 5 (mortality of 90% or above (nearly complete death)); H: Italian ryegrass, herbicidal effect ([13]; dose 6.3 g/a): 5 (mortality of 90% or above (nearly complete death)); G: water foxtail, herbicidal effect ([14]; dose 6.3 g/a): 5 (mortality of 90% or above (nearly complete death)); E: giant foxtail, herbicidal effect ([15]; dose 6.3 g/a): 5 (mortality of 90% or above (nearly complete death)) |
| CCOC(=O)N(c1ccccc1CN1COC(C)(C2CC2)CC1=O)S(=O)(=O)C(F)(F)F (stereo not drawn) [II-45] | 5 (mortality of 90% or above (nearly complete death)) | 5 (mortality of 90% or above (nearly complete death)) | 5 (mortality of 90% or above (nearly complete death)) | 5 (mortality of 90% or above (nearly complete death)) | 5 (mortality of 90% or above (nearly complete death)) | 5 (mortality of 90% or above (nearly complete death)) | 3 (mortality of at least 40% and less than 70%) | 4 (mortality of at least 70% and less than 90%) | 0 (mortality of less than 5% (almost ineffective)) | 4 (mortality of at least 70% and less than 90%) | 0 (mortality of less than 5% (almost ineffective)) | 0 (mortality of less than 5% (almost ineffective)) | 4 (mortality of at least 70% and less than 90%) | 5 (mortality of 90% or above (nearly complete death)) | 4 (mortality of at least 70% and less than 90%) | 5 (mortality of 90% or above (nearly complete death)) | 4 (mortality of at least 70% and less than 90%) | 3 (mortality of at least 40% and less than 70%) | 3 (mortality of at least 40% and less than 70%) | 2 (mortality of at least 20% and less than 40%) | D: large crabgrass, herbicidal effect ([8]; dose 3.2 g/a): 3 (mortality of at least 40% and less than 70%); K: redroot pigweed, herbicidal effect ([9]; dose 3.2 g/a): 0 (mortality of less than 5% (almost ineffective)); L: common lambsquater, herbicidal effect ([10]; dose 3.2 g/a): 3 (mortality of at least 40% and less than 70%); J: common ragweed, herbicidal effect ([11]; dose 3.2 g/a): 3 (mortality of at least 40% and less than 70%); A: barnyardgrass, herbicidal effect ([12]; dose 3.2 g/a): 4 (mortality of at least 70% and less than 90%); H: Italian ryegrass, herbicidal effect ([13]; dose 3.2 g/a): 4 (mortality of at least 70% and less than 90%); G: water foxtail, herbicidal effect ([14]; dose 3.2 g/a): 4 (mortality of at least 70% and less than 90%); E: giant foxtail, herbicidal effect ([15]; dose 3.2 g/a): 2 (mortality of at least 20% and less than 40%); a: transplanted rice, effect on crop (evaluation scale 0-5) [30]: 0 (mortality of less than 5% (almost ineffective)) |
| CCOC(=O)N(c1ccccc1CN1COC(C)(c2ccccc2)CC1=O)S(=O)(=O)C(F)(F)F (stereo not drawn) [II-58] | 5 (mortality of 90% or above (nearly complete death)) | 5 (mortality of 90% or above (nearly complete death)) | 4 (mortality of at least 70% and less than 90%) | 5 (mortality of 90% or above (nearly complete death)) | 5 (mortality of 90% or above (nearly complete death)) | 5 (mortality of 90% or above (nearly complete death)) | 0 (mortality of less than 5% (almost ineffective)) | 4 (mortality of at least 70% and less than 90%) | 0 (mortality of less than 5% (almost ineffective)) | 0 (mortality of less than 5% (almost ineffective)) | 0 (mortality of less than 5% (almost ineffective)) | 0 (mortality of less than 5% (almost ineffective)) | 0 (mortality of less than 5% (almost ineffective)) | 0 (mortality of less than 5% (almost ineffective)) | 4 (mortality of at least 70% and less than 90%) | 5 (mortality of 90% or above (nearly complete death)) | 0 (mortality of less than 5% (almost ineffective)) | 4 (mortality of at least 70% and less than 90%) | 3 (mortality of at least 40% and less than 70%) | 0 (mortality of less than 5% (almost ineffective)) | D: large crabgrass, herbicidal effect ([8]; dose 3.2 g/a): 0 (mortality of less than 5% (almost ineffective)); K: redroot pigweed, herbicidal effect ([9]; dose 3.2 g/a): 0 (mortality of less than 5% (almost ineffective)); L: common lambsquater, herbicidal effect ([10]; dose 3.2 g/a): 1 (mortality of at least 5% and less than 20%); J: common ragweed, herbicidal effect ([11]; dose 3.2 g/a): 3 (mortality of at least 40% and less than 70%); A: barnyardgrass, herbicidal effect ([12]; dose 3.2 g/a): 3 (mortality of at least 40% and less than 70%); H: Italian ryegrass, herbicidal effect ([13]; dose 3.2 g/a): 4 (mortality of at least 70% and less than 90%); G: water foxtail, herbicidal effect ([14]; dose 3.2 g/a): 3 (mortality of at least 40% and less than 70%); E: giant foxtail, herbicidal effect ([15]; dose 3.2 g/a): 0 (mortality of less than 5% (almost ineffective)); a: transplanted rice, effect on crop (evaluation scale 0-5) [30]: 0 (mortality of less than 5% (almost ineffective)) |
